Earlier results in patent publication EP1844783A1 (priority 2006, dated 2007).

Test system: EAE
Conditions: Craner et al., 2005

O=C1NC(=O)C(c2ccccc2)(c2ccccc2)N1 [phenytoin]
ameliorates the inflammatory cell infiltrate in EAE: 75%
